This is an account of results in patent publication US6372466B1, “C-4 specific sulfotransferase” (Seikagaku Corporation, priority 1998, dated 2002).

Entries after “also recorded” stand apart in the source; their conditions may differ.

Common to all, as to assay type: biochemical, rat
Assay [1] relates to G4ST. The experiment in a line: G4ST enzymatic activity assay ([35S]PAPS sulfate transfer to chondroitin). The procedure:
The activities of G4ST and C6ST were assayed in accordance with the method of Habuchi, O. et al. (Habuchi, O., Matsui, Y., Kotoya, Y., Aoyama, Y., Yasuda, Y., and Noda, M., (1993) J. Biol. Chem., 268, 21968-21974). The reaction mixture contained imidazole hydrochloride (2.5 μmol, pH 6.8), protamine chloride (1.25 μg), dithiothreitol (0.1 μmol), chondroitin (25 nmol as glucuronic acid, derived from squid skin, prepared by the method described in Habuchi, O. and Miyata, K. (1980) Biochim. Biophys. Acta 616, 208-217), [^35S]PAPS (50 pmol: about 5.0×10^5 cpm: prepared by the method of Delfert, D. M., et al. (Delfert, D. M., and Conrad, H. E. (1985) Anal. Biochem. 148, 303-310)) and an enzyme in a final volume of 50 μl.
The above-mentioned reaction mixture was incubated at 37° C. for 20 minutes and immersed in a water bath kept at 100° C. for 1 minute to stop the enzymatic reaction. After the reaction was stopped, [^35S]-labeled chondroitin was isolated by desalting by gel chromatography using a Fast Desalting Column and precipitation with ethanol, and radioactivity was measured by the conventional manner.
To distinguish the activities of C6ST and G4ST one from another, [^35S]-labeled chondroitin was digested with chondroitinase ACII and unsaturated disaccharides (ΔDi-4S (2-acetamide-2-deoxy-3-O-(β-D-gluco-4-enepyranosyluronic acid)-4-O-sulfo-D-galactose) and ΔDi-6S (2-acetamide-2-deoxy-3-O-(β-D-gluco-4-enepyranosyluronic acid-6-O-sulfo-D-galactose)) were separated by paper chromatography (filter paper: Toyo No. 51A and solvent: 1-butanol/acetic acid/NH3 (1 M) (volume ratio 2:3:1)), the separated unsaturated disaccharides were visualized by irradiation of ultraviolet rays, the regions containing the disaccharides were cut out, and then radioactivities thereof were counted.
The amount of enzymatic activity required for transferring 1 pmol of a sulfate group for 1 minute under the conditions of 37° C. and pH 6.8 was defined as one unit as a unit of enzymatic activity.
Also, in the above-mentioned assay method for enzymatic activity, pH of imidazole hydrochloride buffer in the reaction mixture was varied (pH range: 6.3 to 7.6) and in addition, the buffer was replaced by one of buffers having various pH ranges (0.05 M, acetate buffer: pH 4.2 to 5.4, MES buffer: pH 5.4 to 6.8, Tris-HCl buffer: pH 7.2 to 9.0), and G4ST activity was assayed at each pH range (FIG. 6B).
In the above-mentioned assay method for enzymatic activity, the concentration of [^35S]PAPS in the reaction mixture was varied to measure the Km value of [^35S]PAPS as a sulfate group donor.

Assay [2] deals with G4ST. The experiment in a line: Substrate specificity of G4ST (sulfate transfer to glycosaminoglycans). The settings on record: for transfer of a sulfate group by G4ST to the glycosaminoglycan as acceptor: 25 nmol as galactosamine or glucosamine, replacing chondroitin in the reaction mixture. The procedure:
According to the measurement method for enzymatic activity described above, the activity of G4ST of transferring a sulfate group to glycosaminoglycans other than chondroitin was measured. A reaction mixture used as a control of reaction was the reaction mixture described for the above-mentioned assay method for enzymatic activity (imidazole hydrochloride (2.5 μmol, pH 6.8), protamine chloride (1.25 μg), dithiothreitol (0.1 μmol), chondroitin (25 nmol as glucuronic acid), [^35S]PAPS (50 pmol: about 5.0×10^5 cpm), and an enzyme, total volume 50 μl) and the activity was measured by replacing the chondroitin contained in the above-mentioned reaction mixture as a control with (1) chondroitin sulfate A (derived from whale cartilage) (manufactured by Seikagaku Corp.), chondroitin sulfate C (derived from shark cartilage) (manufactured by Seikagaku Corp.), and chondroitin sulfate E (derived from squid cartilage) (prepared by the method described in Habuchi, O., Sugiura, K., Kawai, N. and Suzuki, S. (1977) J. Biol. Chem. 252, 4570-4576), (2) dermatan sulfate (derived from pig skin) (manufactured by Seikagaku Corp.), (3) desulfated dermatan sulfate (prepared by the method described by Nagasawa, et al. (Nagasawa, K., Inoue, Y., and Tokuyasu, T. (1995) J. Biochem. 86, 1323-1329)), (4) heparan sulfate (derived from bovine kidney) (manufactured by Seikagaku Corp.), (5) CDSNS-heparin (completely desulfated N-sulfated heparin: manufactured by Seikagaku Corp.), and (6) keratan sulfate (derived from bovine cornea) (manufactured by Seikagaku Corp.) ((1), (2) and (3) were each in an amount of 25 nmol as galactosamine, while (4), (5) and (6) were each in an amount of 25 nmol as glucosamine).
To identify a sulfate group receptor, the purified G4ST was allowed to react with various glycosaminoglycans in the presence of protamine chloride in various concentrations (FIG. 7). In FIG. 7, closed circles indicate the results on chondroitin, open circles indicates the results on desulfated dermatan sulfate, closed triangles indicate the results on chondroitin sulfate A, open triangles indicates the results on chondroitin sulfate C, and closed square indicate the results on dermatan sulfate.
Target sequence in this assay (P69478 101-352 limits assumed): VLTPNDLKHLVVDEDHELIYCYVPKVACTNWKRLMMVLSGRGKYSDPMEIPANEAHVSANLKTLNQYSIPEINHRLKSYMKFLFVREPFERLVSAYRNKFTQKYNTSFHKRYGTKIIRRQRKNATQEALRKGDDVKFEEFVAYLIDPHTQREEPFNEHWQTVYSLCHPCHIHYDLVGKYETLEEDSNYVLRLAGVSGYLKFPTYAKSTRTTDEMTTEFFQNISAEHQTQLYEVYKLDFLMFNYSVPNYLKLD

The test system of assay [3] is G4ST. The experiment in a line: Identification of the sulfate group-transferring site of G4ST (chondroitinase digestion, HPLC / Superdex 30). As to conditions: 35S-labeled by G4ST, digested with chondroitinase ACII, Partisil 10-SAX HPLC. How it is done: To identify the sulfate group-transferring. site of chondroitin and desulfated dermatan sulfate, ^35S-labeled glycosaminoglycan obtained by sulfotransfer reaction by G4ST was digested with chondroitinase ACII (manufactured by Seikagaku Corp.) or chondroitinase ABC (manufactured by Seikagaku Corp.) and the digestion products were analyzed by HPLC (high performance liquid chromatography). ^35S-Labeling was performed under the same conditions as the above-mentioned assay method for enzymatic activity except that the amount of protamine chloride was increased to 10 μg. The unsaturated disaccharides obtained by the digestion of ^35S-labeled chondroitin and ^35S-labeled desulfated dermatan sulfate with chondroitinase ACII or chondroitinase ABC were isolated by HPLC using a Partisil 10-SAX column (4.5 mm×25 cm: manufactured by Whatman) equiberated with KH2PO4 (35 mM). The column was eluted by concentration gradient of KH2PO4 under the conditions of a flow rate of 1 ml/minute and a column temperature of 40° C. to recover 0.5 ml of fractions.
Further, a Superdex 30 gel chromatography was performed using a digestion product obtained by digesting ^35S-labeled desulfated dermatan sulfate with chondroitinase ABC and chondroltinase ACII or chondroitinase ACII alone. […]
Target sequence in this assay (P69478 101-352 limits assumed): as above

The test system of assay [4] is G4ST. The experiment in a line: G4ST enzymatic activity assay ([35S]PAPS sulfate transfer to chondroitin). The settings on record: protamine 0.25 mg/ml.
Target sequence in this assay (P69478 101-352 limits assumed): as above
Setting [5] is: SH group-containing substance in the reaction mixture.

For `O[C@H](CS)[C@H](O)CS` (racemic) [dithiothreitol], the “effect on G4ST activity” value in the assay with G4ST [1] (setting [5]) was “enhanced the activity of G4ST”. As to `OCCS` [2-mercaptoethanol], the “effect on G4ST activity” value in the assay with G4ST [1] (setting [5]) is “enhanced the G4ST activity”. Turning to `[Ba+2]` [Ba^2+], in the assay on G4ST [1] (metal ion 5 mM), the “effect on G4ST activity” value is given as “activated; also recorded: enhanced”. Regarding `[Ca+2]` [Ca^2+], the “effect on G4ST activity” value in the assay on G4ST [1] (metal ion 5 mM) is listed as “activated; also recorded: most activated; also recorded: enhanced”. As to `[Co+2]` [Co^2+], the “effect on G4ST activity” value in the assay on G4ST [1] (metal ion 5 mM) is “inhibit the activity of G4ST; also recorded: inhibited”. Consider `[Fe+2]` [Fe^2+], for which the “effect on G4ST activity” value with G4ST [1] (metal ion 5 mM) is listed as “activated; also recorded: enhanced”.

`[Mg+2]` [Mg^2+]: the “activating action on G4ST compared with other metal ions” value in the assay on G4ST [1] (concentration not printed for Mg2+) is listed as “lowest in such an activating action”. On to `[Mn+2]` [Mn^2+], for which the “effect on G4ST activity” value with G4ST [1] (metal ion 5 mM) was “activated; also recorded: enhanced”.

By Km is commonly meant the substrate concentration at which the rate is half of its maximum. Regarding `Nc1ncnc2c1ncn2[C@@H]1O[C@H](COP(=O)(O)OS(=O)(=O)O)[C@@H](OP(=O)(O)O)[C@H]1O` [PAPS, 3′-phosphoadenosine 5′-phosphosulfate], the Michaelis-Menten constant (Km) with G4ST [1] ([35S]PAPS as sulfate group donor, concentration varied) came to 0.27 µM. For `[Sr+2]` [Sr^2+], the “effect on G4ST activity” value with G4ST [1] (metal ion 5 mM) is given as “activated; also recorded: enhanced”. Turning to `N[C@@H](CCC(=O)N[C@@H](CS)C(=O)NCC(=O)O)C(=O)O` [reduced glutathione], in the assay on G4ST [1] (setting [5]), the “effect on G4ST activity” value is listed as “enhanced the G4ST activity”. Regarding chondroitin, the “transfer of a sulfate group by G4ST to the glycosaminoglycan as acceptor” value (from here on “transfer of a sulfate group by G4ST”) in the assay with G4ST [2] is on record as “transfers a sulfate group”. Moreover, the “lowest protamine chloride concentration at which enhancement of activity was observed” value with G4ST [2] (protamine chloride in various concentrations) amounted to 0.25 mg/mL. The “radioactivity in eluted fractions of ΔDi-4S” value in the assay with G4ST [3] is listed as “radioactivity was detected only in the eluted fractions of ΔDi-4S”. chondroitin sulfate A: the “transfer of a sulfate group by G4ST” value with G4ST [2] was “slight amount of activity; also recorded: transfers a sulfate group”. On the same count and under the same terms, the same measure for chondroitin sulfate C: “transfers a sulfate group”; for chondroitin sulfate E: “transferred substantially no sulfate group”. Take dermatan sulfate: the “transfer of a sulfate group by G4ST” value in the assay on G4ST [2] is given as “transferred substantially no sulfate group”. On to heparan sulfate, for which the “transfer of a sulfate group by G4ST” value in the assay on G4ST [2] is on record as “transferred substantially no sulfate group; also recorded: transfers substantially no sulfate group”. For keratan sulfate, the “transfer of a sulfate group by G4ST” value in the assay on G4ST [2] is given as “transferred substantially no sulfate group”. Regarding protamine, the “effect on G4ST activity” value in the assay on G4ST [4] is recorded as “activated; also recorded: enhanced”.
